Assay results taken from patent US20230339981A1, “KRAS G12D MODULATING COMPOUNDS” (priority 2022, published 2023).

How the values were obtained:
GDP-loaded KRAS G12D = GDP-loaded KRAS G12D (Homo sapiens (Human), UniProt P01116, G12D); experiment: KRAS G12D (GDP) biochemical assay (TR-FRET probe displacement); type: binding; conditions: 2 hours
Outline: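 TR-FRET probe displacement: 1:3 DMSO serial dilutions pre-incubated 30 min with GDP-bound KRAS G12D, followed by Eu-streptavidin/probe for 2 h at room temperature (Hepes pH 7.4, NaCl, MgCl2, Tween-20 buffer). IC50 defined as concentration halving TR-FRET ratio, from sigmoidal dose-response fit.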

AsPC-1 (KRAS G12D) cells = experiment: 3D cell viability assay (spheroids, CellTiter-Glo 3D); type: cell-based; conditions: AsPC-1 cells, 3D spheroids, 4 days
Outline: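 AsPC-1 cells (1000/well) in DMEM with 10% FBS formed spheroids over 3 days at 37 °C in ultra-low attachment plates, then were treated with 1:3 serial dilutions for 4 days. Viability read by CellTiter-Glo 3D luminescence; EC50 as concentration giving 50% signal decrease, sigmoidal fit.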

GP2D (KRAS G12D) cells = experiment: 2D cell viability assay (CellTiter-Glo); type: cell-based; conditions: 4 days
Outline: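 Viability was read by CellTiter-Glo after 4 days at 37 °C of 2D culture of KRAS G12D GP2D cells (1000/well, RPMI, 10% FBS) on pre-spotted threefold compound dilutions. EC50 was fitted with a sigmoidal dose-response model as the point of half-maximal luminescence loss.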

Sequence of GDP-loaded KRAS G12D (P01116-2 other isoform, or with tags, fused parts or gaps G12D): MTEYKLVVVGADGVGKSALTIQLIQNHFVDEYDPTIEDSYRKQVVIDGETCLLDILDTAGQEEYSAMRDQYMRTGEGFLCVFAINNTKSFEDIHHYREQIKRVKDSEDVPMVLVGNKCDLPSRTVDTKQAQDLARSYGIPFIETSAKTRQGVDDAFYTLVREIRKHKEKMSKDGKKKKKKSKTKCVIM

Question: With `C#Cc1c(F)ccc2cc(O)cc(-c3nc4c5c(nc(OC[C@@]67CCCN6C[C@@]6(CC6(F)F)C7)nc5c3F)N3C[C@H]5CC[C@H](N5)[C@H]3CC4)c12` [Example 122, 4-((5aR,6S,9R)-12-(((1S,7a'S)-2,2-difluorodihydro-1′H,3′H-spiro[cyclopropane-1,2′-pyrrolizin]-7a′(5′H)-yl)methoxy)-1-fluoro-4,5,5a,6,7,8,9,10-octahydro-3,10a,11,13,14-pentaaza[6,9]methanonaphtho[1,8-ab]heptalen-2-yl)-5-ethynyl-6-fluoronaphthalen-2-ol] as the molecule, how does the IC50 (GDP-loaded KRAS G12D) read?
Answer: < 0.1 nM

Question: And the EC50 (AsPC-1 (KRAS G12D) cells; Homo sapiens, ASPC1, 96 h)?
Answer: 2.9 nM

Question: What about the EC50 (GP2D (KRAS G12D) cells; GP2d, 96 h) of the same molecule?
Answer: 0.1 nM

Question: How did the IC50 (GDP-loaded KRAS G12D) turn out when `C#Cc1c(F)ccc2cc(O)cc(-c3nc4c5c(nc(OC[C@@]67CCCN6C[C@H](F)C7)nc5c3F)N3C[C@H]5CC[C@H](N5)[C@H]3CCO4)c12` [Example 123, 5-ethynyl-6-fluoro-4-((6aR,7S,10R)-1-fluoro-13-(((2R,7aS)-2-fluorotetrahydro-1H-pyrrolizin-7a(5H)-yl)methoxy)-5,6,6a,7,8,9,10,11-octahydro-4-oxa-3,11a,12,14,15-pentaaza-7,10-methanocyclohepta[4,5]cycloocta[1,2,3-de]naphthalen-2-yl)naphthalen-2-ol] was run?
Answer: < 0.1 nM

Question: And the EC50 (AsPC-1 (KRAS G12D) cells; Homo sapiens, ASPC1, 96 h)?
Answer: 3 nM

Question: What about the EC50 (GP2D (KRAS G12D) cells; GP2d, 96 h) of the same molecule?
Answer: 0.5 nM

Question: How did the IC50 (GDP-loaded KRAS G12D) turn out when `C#Cc1c(F)ccc2cccc(-c3nc4c5c(nc(OC[C@@]67CCCN6C[C@H](F)C7)nc5c3F)N3C[C@H]5CC[C@H](N5)[C@H]3CCO4)c12` [Example 124, (6aR,7S,10R)-2-(8-ethynyl-7-fluoronaphthalen-1-yl)-1-fluoro-13-(((2R,7aS)-2-fluorotetrahydro-1H-pyrrolizin-7a(5H)-yl)methoxy)-5,6,6a,7,8,9,10,11-octahydro-4-oxa-3,11a,12,14,15-pentaaza-7,10-methanocyclohepta[4,5]cycloocta[1,2,3-de]naphthalene] was run?
Answer: 0.5 nM

Question: What about the EC50 (AsPC-1 (KRAS G12D) cells; Homo sapiens, ASPC1, 96 h) of the same molecule?
Answer: 81 nM

Question: And the EC50 (GP2D (KRAS G12D) cells; GP2d, 96 h)?
Answer: 26 nM

Question: Which results are given for `CCc1c(F)ccc2cc(O)cc(-c3cc4c5c(nc(OC[C@@]67CCCN6C[C@H](F)C7)nc5c3F)N3C[C@H]5CC[C@H](N5)[C@H]3CC4)c12` [Example 128, 5-ethyl-6-fluoro-4-((1S,4R,14aR)-10-fluoro-8-(((2R,7aS)-2-fluorotetrahydro-1H-pyrrolizin-7a(5H)-yl)methoxy)-1,2,3,4,5,13,14,14a-octahydro-1,4-epiminoazepino[1′,2′:1,7]azepino[2,3,4-de]quinazolin-11-yl)naphthalen-2-ol]?
Answer: IC50 (GDP-loaded KRAS G12D): 0.2 nM; EC50 (AsPC-1 (KRAS G12D) cells; Homo sapiens, ASPC1, 96 h): 59 nM; EC50 (GP2D (KRAS G12D) cells; GP2d, 96 h): 4.1 nM

Question: With `C#Cc1c(F)ccc2cc(O)cc(-c3nc4c5c(nc(OC[C@@]67CCCN6C[C@H](F)C7)nc5c3F)N3C[C@H]5CC[C@H](N5)[C@@H]3CCC4)c12` [Example 132, 5-ethynyl-6-fluoro-4-((6aS,7S,10R)-1-fluoro-13-(((2R,7aS)-2-fluorotetrahydro-1H-pyrrolizin-7a(5H)-yl)methoxy)-5,6,6a,7,8,9,10,11-octahydro-4H-3,11a,12,14,15-pentaaza-7,10-methanocyclohepta[4,5]cycloocta[1,2,3-de]naphthalen-2-yl)naphthalen-2-ol] as the molecule, how does the IC50 (GDP-loaded KRAS G12D) read?
Answer: 0.2 nM

Question: What about the EC50 (AsPC-1 (KRAS G12D) cells; Homo sapiens, ASPC1, 96 h) of the same molecule?
Answer: 50 nM

Question: What about the EC50 (GP2D (KRAS G12D) cells; GP2d, 96 h) of the same molecule?
Answer: 2.2 nM

Question: How did the IC50 (GDP-loaded KRAS G12D) turn out when `C#Cc1c(F)ccc2cc(O)cc(-c3nc4c5c(nc(OC[C@@]67CCCN6CC(OC(F)(F)F)C7)nc5c3F)N3C[C@H]5CC[C@H](N5)[C@H]3CC4)c12` (stereo partly drawn) [Example 139, 5-ethynyl-6-fluoro-4-((5aR,6S,9R)-1-fluoro-12-((cis-2-(trifluoromethoxy)tetrahydro-1H-pyrrolizin-7a(5H)-yl)methoxy)-4,5,5a,6,7,8,9,10-octahydro-3,10a,11,13,14-pentaaza-6,9-methanonaphtho[1,8-ab]heptalen-2-yl)naphthalen-2-ol] was run?
Answer: 0.1 nM

Question: And the EC50 (AsPC-1 (KRAS G12D) cells; Homo sapiens, ASPC1, 96 h)?
Answer: 4.2 nM

Question: What about the EC50 (GP2D (KRAS G12D) cells; GP2d, 96 h) of the same molecule?
Answer: 0.6 nM

Question: What does the source list for `C#Cc1c(F)ccc2cc(O)cc(-c3nc4c5c(nc(OCC6(CN7CCC(COC(C(F)(F)F)(C(F)(F)F)C(F)(F)F)CC7)CC6)nc5c3F)N3C[C@H]5CC[C@H](N5)[C@H]3CC4)c12` [Example 143, 5-ethynyl-6-fluoro-4-((5aR,6S,9R)-1-fluoro-12-((1-((4-(((1,1,1,3,3,3-hexafluoro-2-(trifluoromethyl)propan-2-yl)oxy)methyl)piperidin-1-yl)methyl)cyclopropyl)methoxy)-4,5,5a,6,7,8,9,10-octahydro-3,10a,11,13,14-pentaaza-6,9-methanonaphtho[1,8-ab]heptalen-2-yl)naphthalen-2-ol]?
Answer: IC50 (GDP-loaded KRAS G12D): 1.9 nM; EC50 (AsPC-1 (KRAS G12D) cells; Homo sapiens, ASPC1, 96 h): 110 nM; EC50 (GP2D (KRAS G12D) cells; GP2d, 96 h): 3.1 nM

Question: Which IC50 (GDP-loaded KRAS G12D) does the source give for `C#Cc1c(F)ccc2cc(O)cc(-c3nc4c5c(nc(OC[C@@]67CCCN6[C@H](COC(C6CC6)C(F)(F)F)CC7)nc5c3F)N3C[C@H]5CC[C@H](N5)[C@H]3CC4)c12` (stereo partly drawn) [Example 147, 4-((5aR,6S,9R)-12-(((3S,7aS)-3-((1-cyclopropyl-2,2,2-trifluoroethoxy)methyl)tetrahydro-1H-pyrrolizin-7a(5H)-yl)methoxy)-1-fluoro-4,5,5a,6,7,8,9,1O-octahydro-3,10a,11,13,14-pentaaza-6,9-methanonaphtho[1,8-ab]heptalen-2-yl)-5-ethynyl-6-fluoronaphthalen-2-ol] here?
Answer: < 0.1 nM

Question: What about the EC50 (AsPC-1 (KRAS G12D) cells) of the same molecule?
Answer: 19 nM

Question: And the EC50 (GP2D (KRAS G12D) cells)?
Answer: 1.3 nM

Question: What does the source list for `C#Cc1c(F)ccc2cc(O)cc(-c3nc4c5c(nc(OC[C@@]67CCCN6[C@H](COc6ccnc(C(F)(F)F)n6)CC7)nc5c3F)N3C[C@H]5CC[C@H](N5)[C@H]3CC4)c12` [Example 148, 5-ethynyl-6-fluoro-4-((5aR,6S,9R)-1-fluoro-12-(((3S,7aS)-3-(((2-(trifluoromethyl)pyrimidin-4-yl)oxy)methyl)tetrahydro-1H-pyrrolizin-7a(5H)-yl)methoxy)-4,5,5a,6,7,8,9,1O-octahydro-3,10a,11,13,14-pentaaza-6,9-methanonaphtho[1,8-ab]heptalen-2-yl)naphthalen-2-ol]?
Answer: IC50 (GDP-loaded KRAS G12D): 0.1 nM; EC50 (AsPC-1 (KRAS G12D) cells; Homo sapiens, ASPC1, 96 h): 7.7 nM; EC50 (GP2D (KRAS G12D) cells; GP2d, 96 h): 0.7 nM

Question: `C#Cc1c(F)ccc2cc(O)cc(-c3nc4c5c(nc(OC[C@@]67CCCN6[C@H](COc6cnc(C(F)(F)F)cn6)CC7)nc5c3F)N3C[C@H]5CC[C@H](N5)[C@H]3CC4)c12` [Example 155, 5-ethynyl-6-fluoro-4-((5aR,6S,9R)-1-fluoro-12-(((3S,7aS)-3-(((5-(trifluoromethyl)pyrazin-2-yl)oxy)methyl)tetrahydro-1H-pyrrolizin-7a(5H)-yl)methoxy)-4,5,5a,6,7,8,9,10-octahydro-3,10a,11,13,14-pentaaza-6,9-methanonaphtho[1,8-ab]heptalen-2-yl)naphthalen-2-ol] was tested. Which IC50 (GDP-loaded KRAS G12D) did it give?
Answer: 0.1 nM

Question: What about the EC50 (AsPC-1 (KRAS G12D) cells; Homo sapiens, ASPC1, 96 h) of the same molecule?
Answer: 5.2 nM

Question: What about the EC50 (GP2D (KRAS G12D) cells; GP2d, 96 h) of the same molecule?
Answer: 0.3 nM

Question: How did the IC50 (GDP-loaded KRAS G12D) turn out when `C#Cc1c(F)ccc2cc(O)cc(-c3nc4c5c(nc(OC[C@@]67CCCN6[C@H](COc6ncccc6OC(F)(F)F)CC7)nc5c3F)N3C[C@H]5CC[C@H](N5)[C@H]3CC4)c12` [Example 160, 5-ethynyl-6-fluoro-4-((5aR,6S,9R)-1-fluoro-12-(((3S,7aS)-3-(((3-(trifluoromethoxy)pyridin-2-yl)oxy)methyl)tetrahydro-1H-pyrrolizin-7a(5H)-yl)methoxy)-4,5,5a,6,7,8,9,10-octahydro-3,10a,11,13,14-pentaaza-6,9-methanonaphtho[1,8-ab]heptalen-2-yl)naphthalen-2-ol] was run?
Answer: 0.2 nM

Question: And the EC50 (AsPC-1 (KRAS G12D) cells; Homo sapiens, ASPC1, 96 h)?
Answer: 16 nM

Question: And the EC50 (GP2D (KRAS G12D) cells; GP2d, 96 h)?
Answer: 1.4 nM
